Reference: patent publication US9988400B2 (Genentech, Inc., priority 2013, dated 2018)

Biological target: T1, HEK cells stably transfected with tetracycline inducible hNR1 and hNR2A (Homo sapiens, UniProt Q05586+Q12879)
T1 construct: expressed in transfected cells; host or cells: HEK cells, stably transfected, tetracycline/doxycycline inducible
Test: Assay 1: Cell-Based Assay, cytosolic calcium response to positive allosteric modulators (with 30 μM glycine and 300 nM L-glutamate, EC30)
Conditions: Table 2; for EC50: cytosolic calcium response, with 30 μM glycine and 300 nM L-glutamate (EC30), — = no plateau was reached; for Max %: responses scaled relative to 100 μM L-glutamate maximal response (100%) and 0 μM L-glutamate (0%)
Procedure, shortened: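 Cells induced 24 h with 7.5 μg mL^−1 doxycycline plus 500 μM (+)-ketamine, loaded 60 min at 37 °C with calcium dye in Mg-free HBSS (1.8 mM Ca, probenecid, 10 μM (+)-ketamine, pH 7.15). Peak RFU over 5 min after compound addition, scaled to 100 μM L-glutamate (100%) and 0 μM (0%); four-parameter Hill fit for EC50, max % if no plateau.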

T1 sequence (Q12879 23-1464, other chains not shown): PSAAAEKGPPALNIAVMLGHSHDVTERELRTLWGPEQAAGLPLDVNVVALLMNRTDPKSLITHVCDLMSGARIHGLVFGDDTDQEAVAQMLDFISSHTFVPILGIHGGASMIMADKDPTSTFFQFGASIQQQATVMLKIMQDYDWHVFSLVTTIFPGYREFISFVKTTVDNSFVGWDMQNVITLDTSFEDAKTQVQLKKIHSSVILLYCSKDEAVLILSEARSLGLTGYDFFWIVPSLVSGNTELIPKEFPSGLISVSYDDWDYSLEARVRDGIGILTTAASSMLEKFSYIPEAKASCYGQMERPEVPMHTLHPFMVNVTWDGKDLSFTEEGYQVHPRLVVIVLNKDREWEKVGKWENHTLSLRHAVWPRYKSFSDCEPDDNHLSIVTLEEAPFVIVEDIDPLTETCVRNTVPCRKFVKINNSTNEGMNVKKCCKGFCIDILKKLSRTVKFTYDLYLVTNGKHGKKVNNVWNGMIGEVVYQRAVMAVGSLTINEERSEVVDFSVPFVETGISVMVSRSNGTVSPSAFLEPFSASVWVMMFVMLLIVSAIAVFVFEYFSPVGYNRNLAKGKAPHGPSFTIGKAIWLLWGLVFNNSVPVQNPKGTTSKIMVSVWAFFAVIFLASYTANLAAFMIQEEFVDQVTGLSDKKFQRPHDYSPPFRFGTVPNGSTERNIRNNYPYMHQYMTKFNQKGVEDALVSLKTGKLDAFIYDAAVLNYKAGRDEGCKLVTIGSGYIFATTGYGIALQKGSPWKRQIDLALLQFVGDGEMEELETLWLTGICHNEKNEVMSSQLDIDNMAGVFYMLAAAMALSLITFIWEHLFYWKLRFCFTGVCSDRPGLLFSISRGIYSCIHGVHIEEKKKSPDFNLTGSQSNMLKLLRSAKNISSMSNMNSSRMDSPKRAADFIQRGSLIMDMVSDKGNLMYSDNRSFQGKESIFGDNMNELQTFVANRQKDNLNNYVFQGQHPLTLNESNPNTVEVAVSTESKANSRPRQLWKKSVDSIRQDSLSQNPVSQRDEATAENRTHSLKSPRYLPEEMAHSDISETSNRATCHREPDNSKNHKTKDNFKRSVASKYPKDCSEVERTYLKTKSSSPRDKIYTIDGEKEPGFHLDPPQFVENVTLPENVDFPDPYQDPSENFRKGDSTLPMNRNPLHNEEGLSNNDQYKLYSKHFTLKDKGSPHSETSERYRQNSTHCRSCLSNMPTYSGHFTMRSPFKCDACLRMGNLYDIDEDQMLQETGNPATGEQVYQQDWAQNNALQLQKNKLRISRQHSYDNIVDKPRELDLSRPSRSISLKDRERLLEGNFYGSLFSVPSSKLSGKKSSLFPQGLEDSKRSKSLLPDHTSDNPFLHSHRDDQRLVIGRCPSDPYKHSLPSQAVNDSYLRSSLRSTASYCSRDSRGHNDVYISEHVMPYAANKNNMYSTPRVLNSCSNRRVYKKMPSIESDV

Row | EC50 | Max % | Compound
1 | 6.7 µM |  | CCNC(=O)c1c(C)sc2nc(Cc3cccc(C(F)(F)F)c3F)cc(=O)n12 [Example 21.12, N-ethyl-7-(2-fluoro-3-(trifluoromethyl)benzyl)-2-methyl-5-oxo-5H-thiazolo[3,2-a]pyrimidine-3-carboxamide]
2 | 12.3 µM | 131% | CCNC(=O)c1c(C)sc2nc(Cc3cccc(C#N)c3F)cc(=O)n12 [Example 21.13, 7-(3-cyano-2-fluorobenzyl)-N-ethyl-2-methyl-5-oxo-5H-thiazolo[3,2-a]pyrimidine-3-carboxamide]
3 | 11 µM | 112% | CNC(=O)c1c(C)sc2nc(Cc3cccc(Cl)c3F)cc(=O)n12 [Example 21.14, 7-[(3-chloro-2-fluoro-phenyl)methyl]-N,2-dimethyl-5-oxo-thiazolo[3,2-a]pyrimidine-3-carboxamide]
4 |  | 112% | CNC(=O)c1c(C)sc2nc(Cc3cccc(C(F)(F)F)c3)cc(=O)n12 [Example 21.15, N,2-dimethyl-5-oxo-7-[[3-(trifluoromethyl)phenyl]methyl]thiazolo[3,2-a]pyrimidine-3-carboxamide]
5 | 14.3 µM | 107% | CNC(=O)c1c(C)sc2nc(Cc3cccc(Cl)c3)cc(=O)n12 [Example 21.16, 7-[(3-chlorophenyl)methyl]-N,2-dimethyl-5-oxo-thiazolo[3,2-a]pyrimidine-3-carboxamide]
6 | 23.7 µM | 107% | CNC(=O)c1c(C)sc2nc(Cc3cc(C(F)(F)F)ccc3C3CC3)cc(=O)n12 [Example 21.17, 7-[[2-cyclopropyl-5-(trifluoromethyl)phenyl]methyl]-N,2-dimethyl-5-oxo-thiazolo[3,2-a]pyrimidine-3-carboxamide]
7 |  | 58.5% | CCNC(=O)c1c(C)sc2nc(Cc3cccc(C(F)(F)F)n3)cc(=O)n12 [Example 21.18, N-ethyl-2-methyl-5-oxo-7-((6-(trifluoromethyl)pyridine-2-yl)methyl)-5H-thiazolo[3,2-a]pyrimidine-3-carboxamide]
8 | 7.4 µM | 145% | CCNC(=O)c1c(C)sc2nc(Cc3cc(F)c(F)cc3CC)cc(=O)n12 [Example 21.19, N-ethyl-7-(2-ethyl-4,5-difluorobenzyl)-2-methyl-5-oxo-5H-thiazolo[3,2-a]pyrimidine-3-carboxamide]
9 | 5.2 µM | 114% | CCNC(=O)c1c(C)sc2nc(Cc3cccc(C(F)F)c3F)cc(=O)n12 [Example 21.20, 7-[[3-(difluoromethyl)-2-fluoro-phenyl]methyl]-N-ethyl-2-methyl-5-oxo-thiazolo[3,2-a]pyrimidine-3-carboxamide]
10 | 33.6 µM | 134% | CCNC(=O)c1c(C)sc2nc(Cc3cc(F)ccc3CC)cc(=O)n12 [Example 21.21]
11 |  | 60.1% | CCNC(=O)c1c(C)sc2nc(Cc3cccc(C#N)n3)cc(=O)n12 [Example 21.22, 7-((6-cyanopyridin-2-yl)methyl)-N-ethyl-2-methyl-5-oxo-5H-thiazolo[3,2-a]pyrimidine-3-carboxamide]
12 | 6.5 µM | 107% | CNC(=O)c1c(C)sc2nc(Cc3cccc(C(F)F)c3F)cc(=O)n12 [Example 21.23, 7-[[3-(difluoromethyl)-2-fluoro-phenyl]methyl]-N,2-dimethyl-5-oxo-thiazolo[3,2-a]pyrimidine-3-carboxamide]
13 | 34.5 µM | 102% | CNC(=O)c1c(C)sc2nc(Cc3cccc(CO)c3F)cc(=O)n12 [Example 21.24, 7-[[2-fluoro-3-(hydroxymethyl)phenyl]methyl]-N,2-dimethyl-5-oxo-thiazolo[3,2-a]pyrimidine-3-carboxamide]
14 | 3.9 µM | 105% | CCNC(=O)c1c(C)sc2nc(Cc3cccc(C4CC4)c3F)cc(=O)n12 [Example 21.25, 7-(3-cyclopropyl-2-fluorobenzyl)-N-ethyl-2-methyl-5-oxo-5H-thiazolo[3,2-a]pyrimidine-3-carboxamide]
15 |  | 76.5% | CCNC(=O)c1csc2nc(Cc3cccc(C#N)c3F)c(F)c(=O)n12 [Example 21.26, 7-(3-cyano-2-fluorobenzyl)-N-ethyl-6-fluoro-5-oxo-5H-thiazolo[3,2-a]pyrimidine-3-carboxamide]
16 | 16 µM | 122% | CNC(=O)c1c(C)sc2nc(Cc3cccc(C#N)c3F)c(F)c(=O)n12 [Example 21.27]
17 | 11.4 µM | 126% | CCNC(=O)c1c(C)sc2nc(Cc3cccc(C#N)c3F)c(F)c(=O)n12 [Example 21.28, 7-(3-cyano-2-fluorobenzyl)-N-ethyl-6-fluoro-2-methyl-5-oxo-5H-thiazolo[3,2-a]pyrimidine-3-carboxamide]
18 | 4.7 µM | 98.2% | CNC(=O)c1c(C)sc2nc(Cc3cccc(C(F)(F)F)c3F)c(F)c(=O)n12 [Example 21.29, 6-fluoro-7-(2-fluoro-3-(trifluoromethyl)benzyl)-N,2-dimethyl-5-oxo-5H-thiazolo[3,2-a]pyrimidine-3-carboxamide]

Row | EC50 | Max % | Compound
19 |  | 100% | CCNC(=O)c1c(C)sc2nc(Cc3cc(C#N)ccc3C)cc(=O)n12 [Example 21.30, 7-(5-cyano-2-methylbenzyl)-N-ethyl-2-methyl-5-oxo-5H-thiazolo[3,2-a]pyrimidine-3-carboxamide]
20 |  | 88.8% | CCNC(=O)c1c(C)sc2nc(Cc3cc(C#N)ccc3F)cc(=O)n12 [Example 21.31, 7-(5-cyano-2-fluorobenzyl)-N-ethyl-2-methyl-5-oxo-5H-thiazolo[3,2-a]pyrimidine-3-carboxamide]
21 |  | 84.3% | CCNC(=O)c1c(C)sc2nc(Cc3cc(F)ccc3Cl)cc(=O)n12 [Example 21.32, 7-(2-chloro-5-fluorobenzyl)-N-ethyl-2-methyl-5-oxo-5H-thiazolo[3,2-a]pyrimidine-3-carboxamide]
22 |  | 79.9% | CCNC(=O)c1c(C)sc2nc(Cc3cc(F)ccc3C(F)(F)F)cc(=O)n12 [Example 21.34, N-ethyl-7-(5-fluoro-2-(trifluoromethyl)benzyl)-2-methyl-5-oxo-5H-thiazolo[3,2-a]pyrimidine-3-carboxamide]
23 |  | 77.8% | CCNC(=O)c1c(C)sc2nc(Cc3cccc4ccccc34)cc(=O)n12 [Example 21.35, N-ethyl-2-methyl-7-(naphthalen-1-ylmethyl)-5-oxo-5H-thiazolo[3,2-a]pyrimidine-3-carboxamide]
24 |  | 71.8% | CCNC(=O)c1c(C)sc2nc(Cc3cc(F)ccc3C)cc(=O)n12 [Example 21.36, N-ethyl-7-(5-fluoro-2-methylbenzyl)-2-methyl-5-oxo-5H-thiazolo[3,2-a]pyrimidine-3-carboxamide]
25 |  | 68.4% | CCNC(=O)c1c(C)sc2nc(Cc3ccc(F)c(C#N)c3)cc(=O)n12 [Example 21.37, 7-(3-cyano-4-fluorobenzyl)-N-ethyl-2-methyl-5-oxo-5H-thiazolo[3,2-a]pyrimidine-3-carboxamide]
26 |  | 66.5% | CCNC(=O)c1c(C)sc2nc(Cc3cccc4c3cnn4C)cc(=O)n12 [Example 21.38, N-ethyl-2-methyl-7-((1-methyl-1H-indazol-4-yl)methyl)-5-oxo-5H-thiazolo[3,2-a]pyrimidine-3-carboxamide]
27 |  | 62.6% | CCNC(=O)c1c(C)sc2nc(Cc3cccc(NS(C)(=O)=O)c3)cc(=O)n12 [Example 21.39, N-ethyl-2-methyl-7-(3-(methylsulfonamido)benzyl)-5-oxo-5H-thiazolo[3,2-a]pyrimidine-3-carboxamide]
28 |  | 61.6% | CCNC(=O)c1c(C)sc2nc(Cc3cc(C#N)ccc3C(F)(F)F)cc(=O)n12 [Example 21.40, 7-(5-cyano-2-(trifluoromethyl)benzyl)-N-ethyl-2-methyl-5-oxo-5H-thiazolo[3,2-a]pyrimidine-3-carboxamide]
29 |  | 59.7% | CNC(=O)c1c(C)sc2nc(Cc3ccc(Cl)cc3C)cc(=O)n12 [Example 21.41, 7-(4-chloro-2-methylbenzyl)-N,2-dimethyl-5-oxo-5H-thiazolo[3,2-a]pyrimidine-3-carboxamide]
30 |  | 54.5% | CCNC(=O)c1c(C)sc2nc(Cc3cc(F)ccc3F)cc(=O)n12 [Example 21.42, 7-(2,5-difluorobenzyl)-N-ethyl-2-methyl-5-oxo-5H-thiazolo[3,2-a]pyrimidine-3-carboxamide]
31 |  | 53.5% | CCNC(=O)c1c(C2CC2)sc2nc(Cc3cccc(C#N)c3)cc(=O)n12 [Example 21.43, 7-(3-cyanobenzyl)-2-cyclopropyl-N-ethyl-5-oxo-5H-thiazolo[3,2-a]pyrimidine-3-carboxamide]
32 |  | 51.9% | CCNC(=O)c1c(C)sc2nc(Cc3ccccc3F)cc(=O)n12 [Example 21.44, N-ethyl-7-(2-fluorobenzyl)-2-methyl-5-oxo-5H-thiazolo[3,2-a]pyrimidine-3-carboxamide]
33 |  | 49.1% | CCNC(=O)c1c(C)sc2nc(Cc3cccc(F)c3F)cc(=O)n12 [Example 21.45, 7-(2,3-difluorobenzyl)-N-ethyl-2-methyl-5-oxo-5H-thiazolo[3,2-a]pyrimidine-3-carboxamide]
34 |  | 43.2% | CCNC(=O)c1c(C)sc2nc(Cc3cccc(F)c3)cc(=O)n12 [Example 21.46, N-ethyl-7-(3-fluorobenzyl)-2-methyl-5-oxo-5H-thiazolo[3,2-a]pyrimidine-3-carboxamide]
35 |  | 103% | CNC(=O)c1c(C)sc2nc(Cc3ccc(F)c(Cl)c3)cc(=O)n12 [Example 21.47, 7-[(3-chloro-4-fluoro-phenyl)methyl]-N,2-dimethyl-5-oxo-thiazolo[3,2-a]pyrimidine-3-carboxamide]

Row | Compound | EC50 | Max %
36 | CCNC(=O)c1csc2nc(Cc3cccc(C#N)c3F)cc(=O)n12 [Example 21.33, 7-(3-cyano-2-fluorobenzyl)-N-ethyl-5-oxo-5H-thiazolo[3,2-a]pyrimidine-3-carboxamide] |  | 82.5%
